Measurements reported in patent publication US20080119498A1, “Therapeutic Agent for Pruritus Comprising P38 Map Kinase Inhibitor as the Active Ingredient” (priority 2004, published 2008).

How the values were obtained:
[1] = test system: histamine-induced eye scratching behavior; test: Ocular pruritus inhibition activity to histamine-induced models; assay type: in vivo, guinea pig; conditions: for number of eye scratching times in comparison with the control (in words): histamine-induced guinea pig model, instilled at 0.1%; for Eye scratching behavior inhibition ratio / Number of eye scratching times: male Hartley guinea pigs, 0.1% (w/v) instilled twice, 10 μl per eye; for Eye scratching behavior inhibition ratio: 30 minutes after instillation of 1.0% histamine, versus control; for Number of eye scratching times: average for 30 minutes after instillation of 1.0% histamine, control 6.1
Procedure: Compound A was dissolved in a 5.0% Tween 80/physiological saline solution at a concentration of 0.1% (w/v), and Compound B was suspended in a 5.0% Tween 80/physiological saline solution at a concentration of 0.1% (w/v), whereby the respective test compound solutions were prepared.
Each test compound solution was instilled into both eyes of 5-week-old male Hartley guinea pigs in an amount of 10 μl per eye. At 15 minutes thereafter, each test compound solution of the same concentration was instilled again (twice in total). As a control, a 5.0% Tween 80/physiological saline solution was used.
After 15 minutes from the second instillation of each test compound solution, a physiological saline solution in which histamine was dissolved at 1.0% (w/v) was instilled into both eyes of the above guinea pigs in an amount of 10 μl per eye to induce eye scratching behavior.
(§1) The behavior of the guinea pigs after the instillation of histamine was videotaped, and the ocular pruritus was evaluated for each eye by counting the number of times of a series of behaviors of scratching the eye with the hind paws. In Table 1, the average of the number of eye scratching times for 30 minutes after the instillation of histamine and the average of the eye scratching behavior inhibition ratio are shown. Each group consisted of 8 eyes.
(§2) Eye scratching behavior inhibition ratio (%)=100−(number of eye scratching times for test compound)/(number of eye scratching times for control)×100

[2] = test system: platelet activating factor-induced eye scratching behavior; test: Ocular pruritus inhibition activity to platelet activating factor-induced models; assay type: in vivo, guinea pig; conditions: for Eye scratching behavior inhibition ratio / Number of eye scratching times: male Hartley guinea pigs, 10 μl per eye; for Eye scratching behavior inhibition ratio: 30 minutes after instillation of 0.1% platelet activating factor, versus control; for Number of eye scratching times: average for 30 minutes after instillation of 0.1% platelet activating factor, control 7.1
Procedure: as §2
Platelet activating factor-induced ocular pruritus evaluation models were prepared in accordance with the published method of Kato et al. (J. Ocul. Pharmacol. Ther. 2003; 19: 315-324). Compound C was dissolved in ultrapure water at a concentration of 0.01% or 0.1% (w/v), and each of the resulting solutions was instilled into both eyes of 5-week-old male Hartley guinea pigs in an amount of 10 μl per eye. At 15 minutes thereafter, each solution of Compound C of the same concentration was instilled again (twice in total). As a control, ultrapure water was used.
After 15 minutes from the second instillation of the solution of Compound C, a physiological saline solution in which a platelet activating factor was dissolved at 0.1% (w/v) was instilled into both eyes of the above guinea pigs in an amount of 10 μl per eye to induce eye scratching behavior.
as §1, with “the platelet activating factor” for “histamine”, “2,” for “1,”

| SMILES | number of eye scratching times in comparison with the control (in words) [1] | Eye scratching behavior inhibition ratio [1] | Number of eye scratching times [1] | Eye scratching behavior inhibition ratio ([2]; 0.01% (w/v) instilled twice) | Number of eye scratching times ([2]; 0.01% (w/v) instilled twice) | Eye scratching behavior inhibition ratio ([2]; 0.1% (w/v) instilled twice) | Number of eye scratching times ([2]; 0.1% (w/v) instilled twice) | number of eye scratching times in comparison with the control (in words) ([2]; platelet activating factor-induced guinea pig model, instilled at 0.01% or 0.1%) |
| --- | --- | --- | --- | --- | --- | --- | --- | --- |
| Cl.Oc1ccc(-c2nc(-c3ccc(F)cc3)c(-c3ccncc3)[nH]2)cc1 [Compound A, 4-(4-fluorophenyl)-2-(4-hydroxyphenyl)-5-(4-pyridyl)-1H-imidazole hydrochloride] | significantly decreased | 77.0% | 1.4 times |  |  |  |  |  |
| COc1nccc(-c2c(-c3ccc(F)cc3)ncn2[C@H]2CC[C@H](O)CC2)n1 [Compound B, trans-4-[4-(4-fluorophenyl)-5-(2-methoxy-4-pyrimidinyl)-1H-imidazole-1-yl]cyclohexanol] | significantly decreased | 36.1% | 3.9 times |  |  |  |  |  |
| C[S+]([O-])c1ccc(-c2nc(-c3ccc(F)cc3)c(-c3ccncc3)[nH]2)cc1.Cl (centres unmarked) [Compound C, 4-(4-fluorophenyl)-2-(4-methylsulfinylphenyl)-5-(4-pyridyl)-1H-imidazole hydrochloride] |  |  |  | 87.3% | 0.9 times | 85.9% | 1.0 times | significantly decreased |
